Measurements reported in the supplement of paper PMC11451515.

Test system: P12-Ichikawa
Assay: cell viability relative to DMSO control; higher = less cytotoxic
Conditions: 48 h
Method in brief: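 Leukemia cells (NOMO1 or SEM, 500 cells/well; P12-Ichikawa, 1000 cells/well) were seeded in 5 μl in 1536-well plates after at least four passages of adaptation to each medium. They received library compounds in DMSO by pin dosing, 11 threefold points from 47 μM to 0.79 nM. Luminescence with CellTiter-Glo One was read after 48 h at 37°C. Viability is stated per plate relative to DMSO wells, with cell-free wells as background.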

[1] = HPLM + 10% dialyzed FBS, 0.000781 µM
[2] = HPLM + 10% dialyzed FBS, 0.00234 µM
[3] = HPLM + 10% dialyzed FBS, 0.00702 µM
[4] = HPLM + 10% dialyzed FBS, 0.0211 µM
[5] = HPLM + 10% dialyzed FBS, 0.0632 µM
[6] = HPLM + 10% dialyzed FBS, 0.19 µM
[7] = HPLM + 10% dialyzed FBS, 0.569 µM
[8] = HPLM + 10% dialyzed FBS, 1.71 µM
[9] = HPLM + 10% dialyzed FBS, 5.12 µM
[10] = HPLM + 10% dialyzed FBS, 15.4 µM
[11] = HPLM + 10% dialyzed FBS, 46.1 µM
[12] = RPMI 5 mM glucose + 10% dialyzed FBS, 0.000781 µM
[13] = RPMI 5 mM glucose + 10% dialyzed FBS, 0.00234 µM
[14] = RPMI 5 mM glucose + 10% dialyzed FBS, 0.00702 µM
[15] = RPMI 5 mM glucose + 10% dialyzed FBS, 0.0211 µM
[16] = RPMI 5 mM glucose + 10% dialyzed FBS, 0.0632 µM
[17] = RPMI 5 mM glucose + 10% dialyzed FBS, 0.19 µM
[18] = RPMI 5 mM glucose + 10% dialyzed FBS, 0.569 µM
[19] = RPMI 5 mM glucose + 10% dialyzed FBS, 1.71 µM
[20] = RPMI 5 mM glucose + 10% dialyzed FBS, 5.12 µM
[21] = RPMI 5 mM glucose + 10% dialyzed FBS, 15.4 µM
[22] = RPMI 5 mM glucose + 10% dialyzed FBS, 46.1 µM
[23] = RPMI 5 mM glucose + 10% FBS, 0.000781 µM
[24] = RPMI 5 mM glucose + 10% FBS, 0.00234 µM
[25] = RPMI 5 mM glucose + 10% FBS, 0.00702 µM
[26] = RPMI 5 mM glucose + 10% FBS, 0.0211 µM
[27] = RPMI 5 mM glucose + 10% FBS, 0.0632 µM
[28] = RPMI 5 mM glucose + 10% FBS, 0.19 µM
[29] = RPMI 5 mM glucose + 10% FBS, 0.569 µM
[30] = RPMI 5 mM glucose + 10% FBS, 1.71 µM
[31] = RPMI 5 mM glucose + 10% FBS, 5.12 µM
[32] = RPMI 5 mM glucose + 10% FBS, 15.4 µM
[33] = RPMI 5 mM glucose + 10% FBS, 46.1 µM

| SMILES | cell viability [1] [%] | cell viability [2] [%] | cell viability [3] [%] | cell viability [4] [%] | cell viability [5] [%] | cell viability [6] [%] | cell viability [7] [%] | cell viability [8] [%] | cell viability [9] [%] | cell viability [10] [%] | cell viability [11] [%] | cell viability [12] [%] | cell viability [13] [%] | cell viability [14] [%] | cell viability [15] [%] | cell viability [16] [%] | cell viability [17] [%] | cell viability [18] [%] | cell viability [19] [%] | cell viability [20] [%] | cell viability [21] [%] | cell viability [22] [%] | cell viability [23] [%] | cell viability [24] [%] | cell viability [25] [%] | cell viability [26] [%] | cell viability [27] [%] | cell viability [28] [%] | cell viability [29] [%] | cell viability [30] [%] | cell viability [31] [%] | cell viability [32] [%] | cell viability [33] [%] |
| --- | --- | --- | --- | --- | --- | --- | --- | --- | --- | --- | --- | --- | --- | --- | --- | --- | --- | --- | --- | --- | --- | --- | --- | --- | --- | --- | --- | --- | --- | --- | --- | --- | --- |
| CC1(C)OC2CC3C4CC(F)C/5=C/C(=O)/C=C\C5(C)C4C(O)CC3(C)[C@@]2(O1)C(=O)CO (some centres undefined) | 110 | 117 | 114 | 115 | 107 | 94.9 | 78 | 73.8 | 71.6 | 72.5 | 70.7 | 115 | 119 | 117 | 102 | 94.4 | 76.6 | 61.4 | 52.1 | 50.8 | 45.9 | 49 | – | – | – | – | – | – | – | – | – | – | – |
| CN1\C(=C(\O)C2=C(C=CS2)[S+]1([O-])=O)C(=O)NC3=CC=CC=N3 | 110 | 105 | 114 | 116 | 114 | 111 | 110 | 105 | 106 | 103 | 104 | 117 | 113 | 116 | 115 | 118 | 111 | 110 | 109 | 100 | 105 | 109 | 110 | 128 | 119 | 116 | 118 | 118 | 118 | 92.1 | 103 | 97.9 | 101 |
| Cn1c(Nc2ccc(C(F)(F)F)cc2)nc2cc(Oc3ccnc(-c4nc(C(F)(F)F)c[nH]4)c3)ccc21 | 120 | 112 | 119 | 93 | 133 | 125 | 126 | 123 | 111 | 81.8 | 27.1 | – | – | – | – | – | – | – | – | – | – | – | – | – | – | – | – | – | – | – | – | – | – |
| O=C(NC[C@H](O)CN1CCc2ccccc2C1)c1cc(NC2COC2)ncn1 | 84.8 | 87.8 | 87.5 | 86.8 | 85.4 | 86.1 | 83.6 | 78.9 | 80 | 80.6 | 71.1 | 80.6 | 88.6 | 84.6 | 87.9 | 88.1 | 86.9 | 77.6 | 79.1 | 78.7 | 72 | 66.3 | 74 | 83.2 | 80 | 85.9 | 86.2 | 84.8 | 77.3 | 74 | 70.4 | 76.4 | 59.3 |
